Where a name gives a salt, the structure may show the parent alone.
Molecular target: T1, SOS1 (Homo sapiens, UniProt Q07889)
T1 sequence (Q07889 1-1333): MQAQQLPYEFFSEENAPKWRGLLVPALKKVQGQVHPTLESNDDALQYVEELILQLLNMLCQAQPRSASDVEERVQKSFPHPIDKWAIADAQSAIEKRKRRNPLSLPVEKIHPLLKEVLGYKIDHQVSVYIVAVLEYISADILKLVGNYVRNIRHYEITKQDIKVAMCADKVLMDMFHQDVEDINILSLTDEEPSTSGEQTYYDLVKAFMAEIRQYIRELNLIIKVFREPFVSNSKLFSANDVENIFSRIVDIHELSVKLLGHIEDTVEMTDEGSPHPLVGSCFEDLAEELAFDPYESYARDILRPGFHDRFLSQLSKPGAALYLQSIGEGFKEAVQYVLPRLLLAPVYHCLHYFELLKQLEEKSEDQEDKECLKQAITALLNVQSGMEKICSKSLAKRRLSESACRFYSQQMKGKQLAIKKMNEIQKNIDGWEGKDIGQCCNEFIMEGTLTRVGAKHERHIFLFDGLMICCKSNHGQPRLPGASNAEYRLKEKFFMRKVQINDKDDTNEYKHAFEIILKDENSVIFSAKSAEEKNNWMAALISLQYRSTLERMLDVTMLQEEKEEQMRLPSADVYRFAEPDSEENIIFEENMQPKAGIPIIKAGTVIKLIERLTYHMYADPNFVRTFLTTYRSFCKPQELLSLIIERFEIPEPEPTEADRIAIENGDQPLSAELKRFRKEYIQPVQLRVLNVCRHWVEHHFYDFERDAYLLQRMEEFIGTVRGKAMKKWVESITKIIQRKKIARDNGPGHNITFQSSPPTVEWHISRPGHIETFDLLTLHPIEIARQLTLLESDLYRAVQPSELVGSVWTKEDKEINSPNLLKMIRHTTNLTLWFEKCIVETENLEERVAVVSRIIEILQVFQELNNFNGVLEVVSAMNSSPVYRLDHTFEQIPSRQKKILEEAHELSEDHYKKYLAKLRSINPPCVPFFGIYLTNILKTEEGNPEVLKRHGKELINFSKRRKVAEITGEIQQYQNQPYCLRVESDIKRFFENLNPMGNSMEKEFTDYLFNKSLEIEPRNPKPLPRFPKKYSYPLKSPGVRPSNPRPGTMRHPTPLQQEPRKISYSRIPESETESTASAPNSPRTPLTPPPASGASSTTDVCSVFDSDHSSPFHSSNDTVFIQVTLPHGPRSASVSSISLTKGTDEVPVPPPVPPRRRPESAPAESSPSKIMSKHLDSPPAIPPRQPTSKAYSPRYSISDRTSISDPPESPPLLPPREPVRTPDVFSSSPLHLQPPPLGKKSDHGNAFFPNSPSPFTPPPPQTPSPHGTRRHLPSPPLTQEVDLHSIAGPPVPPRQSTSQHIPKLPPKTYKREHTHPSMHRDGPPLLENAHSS
Assay: biochemical

Structure (SMILES)	IC50
C[C@@H](Nc1nnc(N2CC3CCC(C2)O3)c2cc(=O)n(C3(C)CC3)cc12)c1cccc(C(F)F)c1F [Example 198, 1-(8-oxa-3-azabicyclo[3.2.1]octan-3-yl)-4-(((R)-1-(3-(difluoromethyl)-2-fluorophenyl)ethyl)amino)-6-(1-methylcyclopropyl) pyrido[3,4-d]pyridazin-7(6H)-one]	13.6 nM
Cc1c(C#N)cccc1[C@@H](C)Nc1nnc(N2CCN(C)CC2)c2cc(=O)n(C3CCN(C)CC3)cc12 [Example 135, (R)-2-methyl-3-(1-((1-(4-methylpiperazin-1-yl)-6-(1-methylpiperidin-4-yl)-7-oxo-6,7-dihydropyrido[3,4-d]pyridazin-4-yl)amino)ethyl)benz onitrile formate]	14.1 nM
CCn1cc2c(N[C@H](C)c3cccc(C(F)F)c3F)nnc(N3CCN(C(C)C)CC3)c2cc1=O [Example 118, (R)-4-((1-(3-(difluoromethyl)-2-fluorophenyl)ethyl)amino)-6-ethyl-1-(4-isopropylpiperazin-1-yl)pyrido[3,4-d]pyridazin-7(6H)-one]	8.4 nM
C[C@@H](Nc1nnc(N2C3CCC2COC3)c2cc(=O)n(C3(C)CC3)cc12)c1cccc(C(F)F)c1F [Example 202, 1-(3-oxa-8-azabicyclo[3.2.1]octan-8-yl)-4-(((R)-1-(3-(difluoromethyl)-2-fluorophenyl)ethyl)amino)-6-(1-methylcyclopropyl) pyrido[3,4-d]pyridazin-7(6H)-one]	12.4 nM
Cc1c(C#N)cccc1[C@@H](C)Nc1nnc(N2CCC(F)(F)C2)c2cc(=O)n(C3(C)CC3)cc12 [Example 69, (R)-3-(1-((1-(3,3-difluoropyrrolidin-1-yl)-6-(1-methylcyclopropyl)-7-oxo-6,7-dihydropyrido[3,4-d]pyridazin-4-yl)amino)ethyl)-2-methylbenzonitrile]	34.2 nM
C[C@@H](Nc1nnc(N2CCN(C(C)(C)C)CC2)c2cc(=O)n(C3(C)CC3)cc12)c1cccc(C(F)(F)F)c1F [Example 172, (R)-4-((1-(2-fluoro-3-(trifluoromethyl)phenyl)ethyl)amino)-1-(4-tert-butylpiperazin-1-yl)-6-(1-methylcyclopropyl) pyrido[3,4-d]pyridazin-7(6H)-one]	4.7 nM
C[C@@H](Nc1nnc(N2CCN(C3CC3)CC2)c2cc(=O)n(C3(C)CC3)cc12)c1cccc(C(F)(F)F)c1F [Example 170, (R)-4-((1-(2-fluoro-3-(trifluoromethyl)phenyl)ethyl)amino)-1-(4-cyclopropylpiperazin-1-yl)-6-(1-methylcyclopropyl) pyrido[3,4-d]pyridazin-7(6H)-one]	6.7 nM
C[C@@H](Nc1nnc(NC(C2CC2)C2CC2)c2cc(=O)n(C3(C)CC3)cc12)c1cccc(C(F)F)c1F [Example 129, (R)-1-((dicyclopropylmethyl)amino)-4-((1-(3-(difluoromethyl)-2-fluorophenyl)ethyl)amino)-6-(1-methylcyclopropyl) pyrido[3,4-d]pyridazin-7(6H)-one]	6.1 nM
Cc1c([C@@H](C)Nc2nnc(N3CCSC3)c3cc(=O)n(C4CC4)cc23)cccc1C(F)(F)F [Example 57, (R)-6-cyclopropyl-4-((1-(2-methyl-3-(trifluoromethyl)phenyl)ethyl)amino)-1-(thiazolidin-3-yl)pyrido[3,4-d]pyridazin-7(6H)-one]	25.6 nM
CCN(CC)c1nnc(N[C@H](C)c2cccc(C(F)F)c2F)c2cn(C3CC3)c(=O)cc12 [Example 17, (R)-6-cyclopropyl-1-(diethylamino)-4-((1-(3-(difluoromethyl)-2-fluorophenyl)ethyl)amino)pyrido[3,4-d]pyridazin-7(6H)-one]	11.2 nM
Cc1c(C#N)cccc1[C@@H](C)Nc1nnc(N2CCS(=O)(=O)CC2)c2cc(=O)n(C3CC3)cc12 [Example 44, (R)-3-(1-((6-cyclopropyl-1-(1,1-dioxidothiomorpholino)-7-oxo-6,7-dihydropyrido[3,4-d]pyridazin-4-yl)amino)ethyl)-2-methylbenzonitrile]	44.2 nM
Cc1c(C#N)cccc1[C@@H](C)Nc1nnc(N2CCC(F)(F)CC2)c2cc(=O)n(C3CC3)cc12 [Example 43, (R)-3-(1-((6-cyclopropyl-1-(4,4-difluoropiperidin-1-yl)-7-oxo-6,7-dihydropyrido[3,4-d]pyridazin-4-yl)amino)ethyl)-2-methylbenzonitrile]	84.2 nM
CCN1CCN(c2nnc(N[C@H](C)c3cc(N)cc(C)c3F)c3cn(C4CC4)c(=O)cc23)CC1 [Example 144, (R)-4-((1-(5-amino-2-fluoro-3-methylphenyl)ethyl)amino)-6-cyclopropyl-1-(4-ethylpiperazin-1-yl)pyrido[3,4-d]pyridazin-7(6H)-one formate]	6.7 nM
C[C@@H](Nc1nnc(N2CC(CO)C2)c2cc(=O)n(C3(C)CC3)cc12)c1cccc(C(F)F)c1F [Example 131, (R)-4-((1-(3-(difluoromethyl)-2-fluorophenyl)ethyl)amino)-1-(3-(hydroxymethyl)azetidin-1-yl)-6-(1-methylcyclopropyl) pyrido[3,4-d]pyridazin-7(6H)-one]	4.6 nM
Cc1c([C@@H](C)Nc2nnc(N3CC(F)(F)C3)c3cc(=O)n(C4(C)CC4)cc23)cccc1C(F)(F)F [Example 66, (R)-1-(3,3-difluoroazetidin-1-yl)-4-((1-(2-methyl-3-(trifluoromethyl)phenyl)ethyl)amino)-6-(1-methylcyclopropyl) pyrido[3,4-d]pyridazin-7(6H)-one]	30.9 nM
Cc1c([C@@H](C)Nc2nnc(N3CCS(=O)(=O)CC3)c3cc(=O)n(C4CC4)cc23)cccc1C(F)(F)F [Example 59, (R)-6-cyclopropyl-1-(1,1-dioxidothiomorpholino)-4-((1-(2-methyl-3-(trifluoromethyl)phenyl)ethyl)amino)pyr ido[3,4-d]pyridazin-7(6H)-one]	27.4 nM
C[C@@H](Nc1nnc(-n2cccn2)c2cc(=O)n(C3CC3)cc12)c1cccc(C(F)F)c1F [Example 30, (R)-6-cyclopropyl-4-((1-(3-(difluoromethyl)-2-fluorophenyl)ethyl)amino)-1-(1H-pyrazol-1-yl) pyrido[3,4-d]pyridazin-7(6H)-one]	33.5 nM
C[C@@H](Nc1nnc(N2CCC3(CCC3)CC2)c2cc(=O)n(C3(C)CC3)cc12)c1cccc(C(F)F)c1F [Example 184, (R)-4-((1-(3-(difluoromethyl)-2-fluorophenyl)ethyl)amino)-6-(1-methylcyclopropyl)-1-(7-azaspiro[3.5]nonan-7-yl)pyrido[3,4-d]pyridazin-7(6H)-one]	40.2 nM
Cc1c(C#N)cccc1[C@@H](C)Nc1nnc(N2CCN(C(C)C)CC2)c2cc(=O)n(C3CC3)cc12 [Example 215, (R)-3-(1-((6-cyclopropyl-1-(4-isopropylpiperazin-1-yl)-7-oxo-6,7-dihydropyrido[3,4-d]pyridazin-4-yl)amino)ethyl)-2-methylbenzonitrile]	8.6 nM
C[C@@H](Nc1nnc(N2CCN(CC3CC3)CC2)c2cc(=O)n(N3CCN(C)CC3)cc12)c1cccc(C(F)F)c1F [Example 154, (R)-1-(4-(cyclopropylmethyl)piperazin-1-yl)-4-((1-(3-(difluoromethyl)-2-fluorophenyl)ethyl)amino)-6-(4-methylpiperazin-1-yl)pyrido[3,4-d]pyridazin-7(6H)-one]	5.4 nM
C[C@@H](Nc1nnc(N(C)C)c2cc(=O)n(C3(C)CC3)cc12)c1cccc(C(F)F)c1F [Example 8, (R)-4-((1-(3-(difluoromethyl)-2-fluorophenyl)ethyl)amino)-1-(dimethylamino)-6-(1-methylcyclopropyl) pyrido[3,4-d]pyridazin-7(6H)-one]	7.7 nM
C[C@@H](Nc1nnc(N2CCN(C3CC3)CC2)c2cc(=O)n(N3CC4CCCC4C3)cc12)c1cccc(C(F)F)c1F (stereo partly drawn) [Example 142, 4-(((R)-1-(3-(difluoromethyl)-2-fluorophenyl)ethyl)amino)-6-(hexahydrocyclopenta[c]pyrrol-2(1H)-yl)-1-(4-cyclopropylpiperazin-1-yl)-pyrido[3,4-d]pyridazin-7(6H)-one]	10.6 nM

Reference: patent EP4722213A1, “NITROGEN-CONTAINING FUNCTIONAL GROUP-SUBSTITUTED PYRIDAZINOPYRIDONE DERIVATIVE AND USE THEREOF” (Sichuan Huiyu Pharmaceutical Co., Ltd., priority 2023, dated 2024)
